# According to patent US8114880B2, “Piperidine or piperazine substituted tetrahydro-naphthalene-1-carboxylic acid MTP inhibiting compounds” (Janssen Pharmaceutica N.V., priority 2006, dated 2012):
# Test system: HepG2 cells
# Assay: Quantification of the secretion of ApoB
# Type: cell-based
# Settings: Homo sapiens, HepG2, 24 h, 24 hours of incubation, pIC50 = -log IC50
# Method in brief: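 At 70% confluency, HepG2 cells received compound (0.4% DMSO final) for 24 h. Secreted apoB in cleared medium was immunoprecipitated with sheep anti-apoB then rabbit anti-sheep antibody (24 h each at 8° C.), and pellet radioactivity was counted by scintillation. IC50 values were expressed as pIC50.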
row,Compound,IC50 [nM]
1,COC(=O)[C@H](CCCCNC(=O)[C@@]1(c2ccccc2)CC[C@H](C(=O)N2CCC(NC(=O)c3ccccc3OC)CC2)c2ccccc21)NC(C)=O [Co. No. 214],> 1000
2,COC(=O)[C@@H](CCCCNC(=O)OC(C)C)NC(=O)[C@@]1(c2ccccc2)CC[C@H](C(=O)N2CCC(NC(=O)c3ccccc3OC)CC2)c2ccccc21 [Co. No. 219],300
3,CC(C)OC(=O)CCNC(=O)[C@@]1(c2ccccc2)CC[C@H](C(=O)N2CCC(NC(=O)c3cccn(C)c3=O)CC2)c2ccccc21 [Co. No. 222],> 1000
4,CCOC(=O)CCCNC(=O)[C@@]1(c2ccccc2)CC[C@H](C(=O)N2CCC(NC(=O)c3cccn(C)c3=O)CC2)c2ccccc21 [Co. No. 225],> 1000
5,Cn1cccc(C(=O)NC2CCN(C(=O)[C@H]3CC[C@@](C(=O)NCCCC(=O)OC(C)(C)C)(c4ccccc4)c4ccccc43)CC2)c1=O [Co. No. 226],> 1000
6,CC(C)OC(=O)CCCCCNC(=O)[C@@]1(c2ccccc2)CC[C@H](C(=O)N2CCC(NC(=O)c3cccn(C)c3=O)CC2)c2ccccc21 [Co. No. 229],> 1000
7,CCOC(=O)[C@H](CCCCNC(=O)OC(C)(C)C)NC(=O)[C@@]1(c2ccccc2)CC[C@H](C(=O)N2CCC(NC(=O)c3cccn(C)c3=O)CC2)c2ccccc21 [Co. No. 231],> 1000
8,CCOC(=O)NCCCC[C@H](NC(=O)[C@@]1(c2ccccc2)CC[C@H](C(=O)N2CCC(NC(=O)c3cccn(C)c3=O)CC2)c2ccccc21)C(=O)OC(C)C [Co. No. 233],> 1000
9,CC(C)OC(=O)NCCCC[C@H](NC(=O)[C@@]1(c2ccccc2)CC[C@H](C(=O)N2CCC(NC(=O)c3cccn(C)c3=O)CC2)c2ccccc21)C(=O)OC(C)C [Co. No. 235],> 1000

# Compounds with a lower IC50, results first:
row,IC50 [nM],Compound
1,22.3,CCOC(=O)NCCCC[C@H](NC(=O)[C@@]1(c2ccccc2)CC[C@H](C(=O)N2CCC(NC(=O)c3ccccc3OC)CC2)c2ccccc21)C(=O)OC(C)C [Co. No. 212]
2,5.9,COc1ccccc1C(=O)NC1CCN(C(=O)[C@H]2CC[C@@](C(=O)N[C@@H](CCCCNC(=O)OC(C)C)C(=O)OC(C)C)(c3ccccc3)c3ccccc32)CC1 [Co. No. 213]
3,18.4,COC(=O)[C@@H](CCCCNC(=O)OC(C)(C)C)NC(=O)[C@@]1(c2ccccc2)CC[C@H](C(=O)N2CCC(NC(=O)c3ccccc3OC)CC2)c2ccccc21 [Co. No. 215]
4,31.1,CCOC(=O)[C@@H](CCCCNC(=O)OC(C)(C)C)NC(=O)[C@@]1(c2ccccc2)CC[C@H](C(=O)N2CCC(NC(=O)c3ccccc3OC)CC2)c2ccccc21 [Co. No. 216]
5,256,CCOC(=O)NCCCC[C@@H](NC(=O)[C@@]1(c2ccccc2)CC[C@H](C(=O)N2CCC(NC(=O)c3ccccc3OC)CC2)c2ccccc21)C(=O)OCC [Co. No. 217]
6,65,CCOC(=O)NCCCC[C@@H](NC(=O)[C@@]1(c2ccccc2)CC[C@H](C(=O)N2CCC(NC(=O)c3ccccc3OC)CC2)c2ccccc21)C(=O)OC(C)C [Co. No. 218]
7,21.1,CCOC(=O)[C@@H](CCCCNC(=O)OC(C)C)NC(=O)[C@@]1(c2ccccc2)CC[C@H](C(=O)N2CCC(NC(=O)c3ccccc3OC)CC2)c2ccccc21 [Co. No. 220]
8,135,COc1ccccc1C(=O)NC1CCN(C(=O)[C@H]2CC[C@@](C(=O)N[C@H](CCCCNC(=O)OC(C)C)C(=O)OC(C)C)(c3ccccc3)c3ccccc32)CC1 [Co. No. 221]

# Target: MTP (Homo sapiens, UniProt P55157)
# Assay: MTP assay (triglyceride transfer from donor to acceptor vesicles)
# Type: biochemical
# Settings: MTP activity, percent triglyceride transfer from donor to acceptor vesicles, 37° C.
# Method in brief: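 Radiolabelled triglyceride transfer from donor vesicles (phosphatidylcholine, 7.5 mol % cardiolipin, 0.25 mol % glycerol tri[1-^14C]-oleate) to phosphatidylcholine acceptor vesicles with BSA, pH 7.5 Tris buffer; compounds in DMSO (0.13% final), 5 min preincubation at 37° C before MTP addition. Donor vesicles removed on DEAE-52; acceptor-supernatant ^14C counts give percent transfer.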
# Chain of MTP (P55157 19-894, species assumed): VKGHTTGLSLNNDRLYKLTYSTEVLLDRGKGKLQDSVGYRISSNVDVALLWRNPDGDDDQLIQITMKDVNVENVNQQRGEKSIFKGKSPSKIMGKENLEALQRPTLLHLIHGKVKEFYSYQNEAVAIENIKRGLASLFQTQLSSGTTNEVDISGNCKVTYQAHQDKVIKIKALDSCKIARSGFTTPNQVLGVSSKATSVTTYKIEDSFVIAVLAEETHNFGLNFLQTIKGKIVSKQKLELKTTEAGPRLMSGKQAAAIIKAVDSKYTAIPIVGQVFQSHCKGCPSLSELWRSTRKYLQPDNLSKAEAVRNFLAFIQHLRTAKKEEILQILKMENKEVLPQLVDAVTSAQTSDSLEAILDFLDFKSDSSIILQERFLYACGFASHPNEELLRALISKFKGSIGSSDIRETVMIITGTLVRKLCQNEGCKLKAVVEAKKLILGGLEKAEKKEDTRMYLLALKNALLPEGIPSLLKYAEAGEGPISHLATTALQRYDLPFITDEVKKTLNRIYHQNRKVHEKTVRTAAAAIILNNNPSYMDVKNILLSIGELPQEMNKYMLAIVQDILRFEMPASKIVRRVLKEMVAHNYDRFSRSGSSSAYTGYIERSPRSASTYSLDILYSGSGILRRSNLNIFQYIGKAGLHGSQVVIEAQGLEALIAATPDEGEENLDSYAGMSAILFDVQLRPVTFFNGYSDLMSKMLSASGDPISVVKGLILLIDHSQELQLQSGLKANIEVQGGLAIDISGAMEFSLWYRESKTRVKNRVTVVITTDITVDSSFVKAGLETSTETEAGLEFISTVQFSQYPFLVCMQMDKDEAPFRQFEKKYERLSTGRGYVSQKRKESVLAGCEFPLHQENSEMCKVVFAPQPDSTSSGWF
# Chain of MTP (P07237 18-508 partner, species assumed): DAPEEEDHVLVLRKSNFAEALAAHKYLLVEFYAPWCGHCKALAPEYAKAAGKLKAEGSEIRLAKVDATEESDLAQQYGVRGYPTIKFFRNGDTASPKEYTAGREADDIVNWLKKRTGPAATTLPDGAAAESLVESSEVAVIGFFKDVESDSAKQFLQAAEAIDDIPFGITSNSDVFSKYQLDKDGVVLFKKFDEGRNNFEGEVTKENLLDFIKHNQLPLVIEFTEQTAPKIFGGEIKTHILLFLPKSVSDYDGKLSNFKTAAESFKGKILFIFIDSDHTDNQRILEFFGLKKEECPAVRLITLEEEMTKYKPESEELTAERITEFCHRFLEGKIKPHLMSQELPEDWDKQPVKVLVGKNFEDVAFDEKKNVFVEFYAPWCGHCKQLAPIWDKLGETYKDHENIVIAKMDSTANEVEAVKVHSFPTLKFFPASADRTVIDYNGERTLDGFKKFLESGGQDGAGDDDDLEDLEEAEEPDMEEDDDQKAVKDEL
row,Compound,IC50 [nM]
1,COC(=O)[C@H](CCCCNC(=O)[C@@]1(c2ccccc2)CC[C@H](C(=O)N2CCC(NC(=O)c3ccccc3OC)CC2)c2ccccc21)NC(C)=O [Co. No. 214],26.8
2,COC(=O)[C@@H](CCCCNC(=O)OC(C)C)NC(=O)[C@@]1(c2ccccc2)CC[C@H](C(=O)N2CCC(NC(=O)c3ccccc3OC)CC2)c2ccccc21 [Co. No. 219],4.24
3,CC(C)OC(=O)CCNC(=O)[C@@]1(c2ccccc2)CC[C@H](C(=O)N2CCC(NC(=O)c3cccn(C)c3=O)CC2)c2ccccc21 [Co. No. 222],45.8
4,CCOC(=O)CCCNC(=O)[C@@]1(c2ccccc2)CC[C@H](C(=O)N2CCC(NC(=O)c3cccn(C)c3=O)CC2)c2ccccc21 [Co. No. 225],> 100
5,Cn1cccc(C(=O)NC2CCN(C(=O)[C@H]3CC[C@@](C(=O)NCCCC(=O)OC(C)(C)C)(c4ccccc4)c4ccccc43)CC2)c1=O [Co. No. 226],111
6,CC(C)OC(=O)CCCCCNC(=O)[C@@]1(c2ccccc2)CC[C@H](C(=O)N2CCC(NC(=O)c3cccn(C)c3=O)CC2)c2ccccc21 [Co. No. 229],7.57
7,CCOC(=O)[C@H](CCCCNC(=O)OC(C)(C)C)NC(=O)[C@@]1(c2ccccc2)CC[C@H](C(=O)N2CCC(NC(=O)c3cccn(C)c3=O)CC2)c2ccccc21 [Co. No. 231],> 100
8,CCOC(=O)NCCCC[C@H](NC(=O)[C@@]1(c2ccccc2)CC[C@H](C(=O)N2CCC(NC(=O)c3cccn(C)c3=O)CC2)c2ccccc21)C(=O)OC(C)C [Co. No. 233],117
9,CC(C)OC(=O)NCCCC[C@H](NC(=O)[C@@]1(c2ccccc2)CC[C@H](C(=O)N2CCC(NC(=O)c3cccn(C)c3=O)CC2)c2ccccc21)C(=O)OC(C)C [Co. No. 235],109

# The remaining lines, values ahead:
row,IC50 [nM],Compound
1,4.34,CCOC(=O)NCCCC[C@H](NC(=O)[C@@]1(c2ccccc2)CC[C@H](C(=O)N2CCC(NC(=O)c3ccccc3OC)CC2)c2ccccc21)C(=O)OC(C)C [Co. No. 212]
2,3.1,COc1ccccc1C(=O)NC1CCN(C(=O)[C@H]2CC[C@@](C(=O)N[C@@H](CCCCNC(=O)OC(C)C)C(=O)OC(C)C)(c3ccccc3)c3ccccc32)CC1 [Co. No. 213]
3,2.92,COC(=O)[C@@H](CCCCNC(=O)OC(C)(C)C)NC(=O)[C@@]1(c2ccccc2)CC[C@H](C(=O)N2CCC(NC(=O)c3ccccc3OC)CC2)c2ccccc21 [Co. No. 215]
4,6.7,CCOC(=O)[C@@H](CCCCNC(=O)OC(C)(C)C)NC(=O)[C@@]1(c2ccccc2)CC[C@H](C(=O)N2CCC(NC(=O)c3ccccc3OC)CC2)c2ccccc21 [Co. No. 216]
5,8.22,CCOC(=O)NCCCC[C@@H](NC(=O)[C@@]1(c2ccccc2)CC[C@H](C(=O)N2CCC(NC(=O)c3ccccc3OC)CC2)c2ccccc21)C(=O)OCC [Co. No. 217]
6,2.41,CCOC(=O)NCCCC[C@@H](NC(=O)[C@@]1(c2ccccc2)CC[C@H](C(=O)N2CCC(NC(=O)c3ccccc3OC)CC2)c2ccccc21)C(=O)OC(C)C [Co. No. 218]
7,1.86,CCOC(=O)[C@@H](CCCCNC(=O)OC(C)C)NC(=O)[C@@]1(c2ccccc2)CC[C@H](C(=O)N2CCC(NC(=O)c3ccccc3OC)CC2)c2ccccc21 [Co. No. 220]
8,1.78,COc1ccccc1C(=O)NC1CCN(C(=O)[C@H]2CC[C@@](C(=O)N[C@H](CCCCNC(=O)OC(C)C)C(=O)OC(C)C)(c3ccccc3)c3ccccc32)CC1 [Co. No. 221]
